Tested on: 186277-243-T-J2-PDC complex spheroids, viability
Assay: Anticancer human tumor 186277-243-T-J2-PDC patient-derived colon adenocarcinoma cell line growth inhibition [RAS]
Details: for IC50: curve of first compound; for viability, T/C: stronger effect = lower value
Procedure, shortened: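 Multi-cell-type spheroids: tumor cells plus HUVEC endothelial cells and mesenchymal stem cells. RAS-pathway inhibitors were combined with targeted agents, each dosed in half-log steps down from clinical Cmax, or from 10 microM when Cmax was unknown.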

[1] = second compound 0.000949 µM, first compound 0.0316 µM
[2] = second compound 0.000949 µM, first compound 0.1 µM
[3] = second compound 0.000949 µM, first compound 0.316 µM
[4] = second compound 0.000949 µM, first compound 1 µM
[5] = second compound 0.003 µM, first compound 0.0316 µM
[6] = second compound 0.003 µM, first compound 0.1 µM
[7] = second compound 0.003 µM, first compound 0.316 µM
[8] = second compound 0.003 µM, first compound 1 µM
[9] = second compound 0.00949 µM, first compound 0.0316 µM
[10] = second compound 0.00949 µM, first compound 0.1 µM
[11] = second compound 0.00949 µM, first compound 0.316 µM
[12] = second compound 0.00949 µM, first compound 1 µM
[13] = second compound 0.03 µM, first compound 0.0316 µM
[14] = second compound 0.03 µM, first compound 0.1 µM
[15] = second compound 0.03 µM, first compound 0.316 µM
[16] = second compound 0.03 µM, first compound 1 µM
[17] = second compound 0.0949 µM, first compound 0.0316 µM
[18] = second compound 0.0949 µM, first compound 0.1 µM
[19] = second compound 0.0949 µM, first compound 0.316 µM
[20] = second compound 0.0949 µM, first compound 1 µM
[21] = second compound 0.3 µM, first compound 0.0316 µM
[22] = second compound 0.3 µM, first compound 0.1 µM
[23] = second compound 0.3 µM, first compound 0.316 µM
[24] = second compound 0.3 µM, first compound 1 µM
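Note: spheroids exposed to compounds for 7 days before viability read.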

CC(Nc1ccc2c(c1)OCCn1cc(N3C(=O)OCC3C(F)F)nc1-2)C(N)=O (stereo unspecified) + CCn1c(-c2cccnc2C(C)OC)c2c3cc(ccc31)N1CCOC(CC(NC(=O)C(C(C)C)N(C)C(=O)C3(F)CCN(C(=O)C#CC(C)(C)N(C)C)CC3)C(=O)N3CCCC(N3)C(=O)OCC(C)(C)C2)C1
IC50 (second compound 0.000949 µM): 5910 nM
IC50 (second compound 0.003 µM): 5850 nM
IC50 (second compound 0.00949 µM): 5630 nM
IC50 (second compound 0.03 µM): 5690 nM
IC50 (second compound 0.0949 µM): 2560 nM
IC50 (second compound 0.3 µM): 317 nM
viability, T/C [1]: 108%
viability, T/C [2]: 97.7%
viability, T/C [3]: 70.5%
viability, T/C [4]: 49.3%
viability, T/C (second compound 0.000949 µM, first compound 3.16 µM): 96.2%
viability, T/C (second compound 0.000949 µM, first compound 10 µM): 21.1%
viability, T/C [5]: 95.1%
viability, T/C [6]: 90.1%
viability, T/C [7]: 66.2%
viability, T/C [8]: 55.3%
viability, T/C (second compound 0.003 µM, first compound 3.16 µM): 105%
viability, T/C (second compound 0.003 µM, first compound 10 µM): 21.8%
viability, T/C [9]: 78.8%
viability, T/C [10]: 94%
viability, T/C [11]: 74.3%
viability, T/C [12]: 52.1%
viability, T/C (second compound 0.00949 µM, first compound 3.16 µM): 102%
viability, T/C (second compound 0.00949 µM, first compound 10 µM): 19.8%
viability, T/C [13]: 105%
viability, T/C [14]: 91.7%
viability, T/C [15]: 65.3%
viability, T/C [16]: 48%
viability, T/C (second compound 0.03 µM, first compound 3.16 µM): 108%
viability, T/C (second compound 0.03 µM, first compound 10 µM): 17.6%
viability, T/C [17]: 102%
viability, T/C [18]: 91.9%
viability, T/C [19]: 59.2%
viability, T/C [20]: 38.5%
viability, T/C (second compound 0.0949 µM, first compound 3.16 µM): 97.8%
viability, T/C (second compound 0.0949 µM, first compound 10 µM): 12.3%
viability, T/C [21]: 96.1%
viability, T/C [22]: 66.4%
viability, T/C [23]: 47.1%
viability, T/C [24]: 25.4%
viability, T/C (second compound 0.3 µM, first compound 3.16 µM): 86.4%
viability, T/C (second compound 0.3 µM, first compound 10 µM): 7.8%

CCN1CCN(Cc2ccc(Nc3ncc(F)c(-c4cc(F)c5nc(C)n(C(C)C)c5c4)n3)nc2)CC1 + CCn1c(-c2cc(N3CCN(C)CC3)cnc2C(C)OC)c2c3cc(ccc31)-c1csc(n1)CC(NC(=O)C1CC1C)C(=O)N1CCCC(N1)C(=O)OCC(C)(C)C2
IC50 (second compound 0.000949 µM): > 1000 nM
IC50 (second compound 0.003 µM): 357 nM
IC50 (second compound 0.00949 µM): 3.65 nM
IC50 (second compound 0.03 µM): < 3.16 nM
IC50 (second compound 0.0949 µM): < 3.16 nM
IC50 (second compound 0.3 µM): < 3.16 nM
viability, T/C (second compound 0.000949 µM, first compound 0.00316 µM): 102%
viability, T/C (second compound 0.000949 µM, first compound 0.01 µM): 121%
viability, T/C [1]: 140%
viability, T/C [2]: 149%
viability, T/C [3]: 121%
viability, T/C [4]: 76.6%
viability, T/C (second compound 0.003 µM, first compound 0.00316 µM): 105%
viability, T/C (second compound 0.003 µM, first compound 0.01 µM): 111%
viability, T/C [5]: 107%
viability, T/C [6]: 86.1%
viability, T/C [7]: 53%
viability, T/C [8]: 32%
viability, T/C (second compound 0.00949 µM, first compound 0.00316 µM): 50.8%
viability, T/C (second compound 0.00949 µM, first compound 0.01 µM): 43.8%
viability, T/C [9]: 32.7%
viability, T/C [10]: 22.1%
viability, T/C [11]: 16.8%
viability, T/C [12]: 12.3%
viability, T/C (second compound 0.03 µM, first compound 0.00316 µM): 14.5%
viability, T/C (second compound 0.03 µM, first compound 0.01 µM): 13.7%
viability, T/C [13]: 11.9%
viability, T/C [14]: 9.88%
viability, T/C [15]: 9.46%
viability, T/C [16]: 8.2%
viability, T/C (second compound 0.0949 µM, first compound 0.00316 µM): 7.73%
viability, T/C (second compound 0.0949 µM, first compound 0.01 µM): 7.37%
viability, T/C [17]: 6.72%
viability, T/C [18]: 6.74%
viability, T/C [19]: 7.64%
viability, T/C [20]: 7%
viability, T/C (second compound 0.3 µM, first compound 0.00316 µM): 6.2%
viability, T/C (second compound 0.3 µM, first compound 0.01 µM): 5.86%
viability, T/C [21]: 6.14%
viability, T/C [22]: 6.13%
viability, T/C [23]: 6.52%
viability, T/C [24]: 6.25%

CCc1c2c(nc3ccc(O)cc13)-c1cc3c(c(=O)n1C2)COC(=O)[C@]3(O)CC + CCn1c(-c2cc(N3CCN(C)CC3)cnc2C(C)OC)c2c3cc(ccc31)-c1csc(n1)CC(NC(=O)C1CC1C)C(=O)N1CCCC(N1)C(=O)OCC(C)(C)C2
IC50 (second compound 0.000949 µM): 5.27 nM
IC50 (second compound 0.003 µM): 1.96 nM
IC50 (second compound 0.00949 µM): < 0.949 nM
IC50 (second compound 0.03 µM): < 0.949 nM
IC50 (second compound 0.0949 µM): < 0.949 nM
IC50 (second compound 0.3 µM): < 0.949 nM
viability, T/C (second compound 0.000949 µM, first compound 0.000949 µM): 113%
viability, T/C (second compound 0.000949 µM, first compound 0.003 µM): 58.7%
viability, T/C (second compound 0.000949 µM, first compound 0.00949 µM): 39.5%
viability, T/C (second compound 0.000949 µM, first compound 0.03 µM): 23.4%
viability, T/C (second compound 0.000949 µM, first compound 0.0949 µM): 9.6%
viability, T/C (second compound 0.000949 µM, first compound 0.3 µM): 6.83%
viability, T/C (second compound 0.003 µM, first compound 0.000949 µM): 69.5%
viability, T/C (second compound 0.003 µM, first compound 0.003 µM): 37.6%
viability, T/C (second compound 0.003 µM, first compound 0.00949 µM): 22.2%
viability, T/C (second compound 0.003 µM, first compound 0.03 µM): 13.2%
viability, T/C (second compound 0.003 µM, first compound 0.0949 µM): 5.72%
viability, T/C (second compound 0.003 µM, first compound 0.3 µM): 4.11%
viability, T/C (second compound 0.00949 µM, first compound 0.000949 µM): 18.6%
viability, T/C (second compound 0.00949 µM, first compound 0.003 µM): 10.9%
viability, T/C (second compound 0.00949 µM, first compound 0.00949 µM): 9.28%
viability, T/C (second compound 0.00949 µM, first compound 0.03 µM): 6.45%
viability, T/C (second compound 0.00949 µM, first compound 0.0949 µM): 3.6%
viability, T/C (second compound 0.00949 µM, first compound 0.3 µM): 2.17%
viability, T/C (second compound 0.03 µM, first compound 0.000949 µM): 9.49%
viability, T/C (second compound 0.03 µM, first compound 0.003 µM): 6.27%
viability, T/C (second compound 0.03 µM, first compound 0.00949 µM): 5.72%
viability, T/C (second compound 0.03 µM, first compound 0.03 µM): 4.05%
viability, T/C (second compound 0.03 µM, first compound 0.0949 µM): 2.52%
viability, T/C (second compound 0.03 µM, first compound 0.3 µM): 1.56%
viability, T/C (second compound 0.0949 µM, first compound 0.000949 µM): 5.21%
viability, T/C (second compound 0.0949 µM, first compound 0.003 µM): 4.44%
viability, T/C (second compound 0.0949 µM, first compound 0.00949 µM): 4.37%
viability, T/C (second compound 0.0949 µM, first compound 0.03 µM): 2.94%
viability, T/C (second compound 0.0949 µM, first compound 0.0949 µM): 2.29%
viability, T/C (second compound 0.0949 µM, first compound 0.3 µM): 1.3%
viability, T/C (second compound 0.3 µM, first compound 0.000949 µM): 4.39%
viability, T/C (second compound 0.3 µM, first compound 0.003 µM): 3.92%
viability, T/C (second compound 0.3 µM, first compound 0.00949 µM): 3.85%
viability, T/C (second compound 0.3 µM, first compound 0.03 µM): 2.91%
viability, T/C (second compound 0.3 µM, first compound 0.0949 µM): 2.37%
viability, T/C (second compound 0.3 µM, first compound 0.3 µM): 1.27%

— PubChem BioAssay AID2060908 (Molecular Pharmacology Branch, DTP, NCI, 2025)
